{"source": "the supplement of paper PMC10307832", "test_in_all_cases": "relative viability (nuclei count vs DMSO), 5 days (fraction); higher = more cells survive", "key": {"[1]": {"tested_on": "NCI-H1650", "procedure,_shortened": "(§1)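 Lung cancer cell lines in 1536-well plates got either a single drug or a fixed anchor-drug dose together with five library-drug doses (not always all listed) in √10 steps, by pin tool, on the day after seeding. Nuclei were counted after 5 days, and relative viability is the treated-to-vehicle ratio of nuclei counts. Values are medians of duplicate plates.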"}, "[2]": {"tested_on": "COR-L 105", "procedure,_shortened": "as §1"}, "[3]": {"tested_on": "LU99A", "procedure,_shortened": "as §1"}, "[4]": {"tested_on": "NCI-H838", "procedure,_shortened": "as §1"}, "[5]": {"tested_on": "NCI-H2170", "procedure,_shortened": "as §1"}, "[6]": {"tested_on": "PC-14", "procedure,_shortened": "as §1"}, "[7]": {"tested_on": "HARA", "procedure,_shortened": "as §1"}, "[8]": {"tested_on": "NCI-H1666", "procedure,_shortened": "as §1"}, "[9]": {"tested_on": "EKVX", "procedure,_shortened": "as §1"}, "[10]": {"tested_on": "LK-2", "procedure,_shortened": "as §1"}, "[11]": {"tested_on": "CAL-12T", "procedure,_shortened": "as §1"}, "[12]": {"tested_on": "NCI-H3122", "procedure,_shortened": "as §1"}, "[13]": {"tested_on": "NCI-H441", "procedure,_shortened": "as §1"}, "[14]": {"tested_on": "HCC-366", "procedure,_shortened": "as §1"}, "[15]": {"tested_on": "BEN", "procedure,_shortened": "as §1"}, "[16]": {"tested_on": "NCI-H2009", "procedure,_shortened": "as §1"}, "[17]": {"tested_on": "NCI-H2023", "procedure,_shortened": "as §1"}, "[18]": {"tested_on": "NCI-H1437", "procedure,_shortened": "as §1"}, "[19]": {"tested_on": "NCI-H727", "procedure,_shortened": "as §1"}, "[20]": {"tested_on": "NCI-H661", "procedure,_shortened": "as §1"}, "[21]": {"tested_on": "201T", "procedure,_shortened": "as §1"}, "[22]": {"tested_on": "COR-L23", "procedure,_shortened": "as §1"}, "[23]": {"tested_on": "SW 900", "procedure,_shortened": "as §1"}}}
{"smiles": "CC(C)Oc1cc(Nc2nc(N[C@@H](C)c3ccc(F)cn3)ncc2Cl)n[nH]1", "note": "[AZ23] + CC(=O)Nc1cccc(-n2c(=O)n(C3CC3)c(=O)c3c(Nc4ccc(I)cc4F)n(C)c(=O)c(C)c32)c1 [Trametinib] (partner 0.02 µM)", "values": [{"measurement": "relative viability", "setting": "[1]; first compound 0.01 µM", "value": 0.546}, {"measurement": "relative viability", "setting": "[1]; first compound 0.03162 µM", "value": 0.589}, {"measurement": "relative viability", "setting": "[1]; first compound 0.3162 µM", "value": 0.659}, {"measurement": "relative viability", "setting": "[2]; first compound 0.01 µM", "value": 0.432}, {"measurement": "relative viability", "setting": "[2]; first compound 0.03162 µM", "value": 0.371}, {"measurement": "relative viability", "setting": "[2]; first compound 0.3162 µM", "value": 0.478}, {"measurement": "relative viability", "setting": "[3]; first compound 0.01 µM", "value": 0.519}, {"measurement": "relative viability", "setting": "[3]; first compound 0.03162 µM", "value": 0.708}, {"measurement": "relative viability", "setting": "[3]; first compound 0.3162 µM", "value": 0.536}, {"measurement": "relative viability", "setting": "[4]; first compound 0.01 µM", "value": 0.615}, {"measurement": "relative viability", "setting": "[4]; first compound 0.03162 µM", "value": 0.561}, {"measurement": "relative viability", "setting": "[4]; first compound 0.3162 µM", "value": 0.456}, {"measurement": "relative viability", "setting": "[5]; first compound 0.01 µM", "value": 1.14}, {"measurement": "relative viability", "setting": "[5]; first compound 0.03162 µM", "value": 0.953}, {"measurement": "relative viability", "setting": "[5]; first compound 0.3162 µM", "value": 0.994}, {"measurement": "relative viability", "setting": "[6]; first compound 0.01 µM", "value": 0.599}, {"measurement": "relative viability", "setting": "[6]; first compound 0.03162 µM", "value": 0.783}, {"measurement": "relative viability", "setting": "[6]; first compound 0.3162 µM", "value": 0.749}, {"measurement": "relative viability", "setting": "[7]; first compound 0.01 µM", "value": 0.666}, {"measurement": "relative viability", "setting": "[7]; first compound 0.03162 µM", "value": 0.886}, {"measurement": "relative viability", "setting": "[7]; first compound 0.3162 µM", "value": 0.399}, {"measurement": "relative viability", "setting": "[8]; first compound 0.01 µM", "value": 0.804}, {"measurement": "relative viability", "setting": "[8]; first compound 0.03162 µM", "value": 0.847}, {"measurement": "relative viability", "setting": "[8]; first compound 0.3162 µM", "value": 0.903}, {"measurement": "relative viability", "setting": "[9]; first compound 0.01 µM", "value": 0.346}, {"measurement": "relative viability", "setting": "[9]; first compound 0.03162 µM", "value": 0.351}, {"measurement": "relative viability", "setting": "[9]; first compound 0.3162 µM", "value": 0.332}, {"measurement": "relative viability", "setting": "[10]; first compound 0.01 µM", "value": 0.949}, {"measurement": "relative viability", "setting": "[10]; first compound 0.03162 µM", "value": 0.916}, {"measurement": "relative viability", "setting": "[10]; first compound 0.3162 µM", "value": 0.681}, {"measurement": "relative viability", "setting": "[11]; first compound 0.03162 µM", "value": 0.28}, {"measurement": "relative viability", "setting": "[11]; first compound 0.3162 µM", "value": 0.368}, {"measurement": "relative viability", "setting": "[12]; first compound 0.01 µM", "value": 0.268}, {"measurement": "relative viability", "setting": "[12]; first compound 0.03162 µM", "value": 0.243}, {"measurement": "relative viability", "setting": "[12]; first compound 0.3162 µM", "value": 0.22}, {"measurement": "relative viability", "setting": "[13]; first compound 0.01 µM", "value": 0.504}, {"measurement": "relative viability", "setting": "[13]; first compound 0.03162 µM", "value": 0.433}, {"measurement": "relative viability", "setting": "[13]; first compound 0.3162 µM", "value": 0.509}, {"measurement": "relative viability", "setting": "[14]; first compound 0.01 µM", "value": 0.334}, {"measurement": "relative viability", "setting": "[14]; first compound 0.03162 µM", "value": 0.399}, {"measurement": "relative viability", "setting": "[14]; first compound 0.3162 µM", "value": 0.33}, {"measurement": "relative viability", "setting": "[15]; first compound 0.01 µM", "value": 0.909}, {"measurement": "relative viability", "setting": "[15]; first compound 0.03162 µM", "value": 1.14}, {"measurement": "relative viability", "setting": "[15]; first compound 0.3162 µM", "value": 1.09}, {"measurement": "relative viability", "setting": "[16]; first compound 0.01 µM", "value": 0.257}, {"measurement": "relative viability", "setting": "[16]; first compound 0.03162 µM", "value": 0.243}, {"measurement": "relative viability", "setting": "[16]; first compound 0.3162 µM", "value": 0.284}, {"measurement": "relative viability", "setting": "[17]; first compound 0.03162 µM", "value": 0.602}, {"measurement": "relative viability", "setting": "[17]; first compound 0.3162 µM", "value": 0.48}, {"measurement": "relative viability", "setting": "[18]; first compound 0.01 µM", "value": 0.503}, {"measurement": "relative viability", "setting": "[18]; first compound 0.03162 µM", "value": 0.512}, {"measurement": "relative viability", "setting": "[18]; first compound 0.3162 µM", "value": 0.651}, {"measurement": "relative viability", "setting": "[19]; first compound 0.01 µM", "value": 0.365}, {"measurement": "relative viability", "setting": "[19]; first compound 0.03162 µM", "value": 0.36}, {"measurement": "relative viability", "setting": "[19]; first compound 0.3162 µM", "value": 0.389}, {"measurement": "relative viability", "setting": "[20]; first compound 0.01 µM", "value": 0.611}, {"measurement": "relative viability", "setting": "[20]; first compound 0.03162 µM", "value": 0.575}, {"measurement": "relative viability", "setting": "[20]; first compound 0.3162 µM", "value": 0.547}, {"measurement": "relative viability", "setting": "[21]; first compound 0.01 µM", "value": 0.716}, {"measurement": "relative viability", "setting": "[21]; first compound 0.03162 µM", "value": 0.731}, {"measurement": "relative viability", "setting": "[21]; first compound 0.3162 µM", "value": 0.649}, {"measurement": "relative viability", "setting": "[22]; first compound 0.01 µM", "value": 0.446}, {"measurement": "relative viability", "setting": "[22]; first compound 0.03162 µM", "value": 0.659}, {"measurement": "relative viability", "setting": "[22]; first compound 0.3162 µM", "value": 0.612}, {"measurement": "relative viability", "setting": "[23]; first compound 0.01 µM", "value": 1.06}, {"measurement": "relative viability", "setting": "[23]; first compound 0.3162 µM", "value": 0.873}]}
